From patent publication US20040087512A1, “In-situ formation of CLA” (priority 1998, published 2004)

How the values were obtained:
C57/B1/6J mice [1] = test: Example 6: milk fat percentage of mice fed oleic acid isomer diets (creamatocrit); format: in vivo; details: for Milk fat on day 10 versus day 6 of lactation: isomer replaces about 25% of dietary fat, four days
Description: (§1) C57/B1/6J mice fed a control diet (10 wt % fat) were switched to one of four isomer diets at day 6 of lactation after milk collection. Approximately 25% of the dietary fat (5 caloric %) during the treatment period was replaced with one of four specific isomers of oleic acid, either cis-9; cis-11; trans-9 or trams-11, other diet components were identical. The mice consumed these diets ad libitum for four days and were milked again on day 10 of lactation. Milk and fecal fatty acid composition was analyzed as fatty acid methyl esters by GC. Specific isomers were identified by relative retention times. Milk fat percentage was determined by the creamatocrit method and differences between day 6 and day 10 fat percentages were evaluated by a paired t-test.

C57/B1/6J mice [2] = test: Example 6: milk and fecal fatty acid composition of mice fed oleic acid isomer diets (GC of FAME); format: in vivo; details: day 10, fed the isomer diet
Description: as §1

cows = test: Milk fat levels in cows ingesting C18 trans 11 fats; details: in vivo

## CCCCCCCC/C=C\CCCCCCCC(=O)O [cis-9]
C57/B1/6J mice [1]
  Milk fat on day 10 versus day 6 of lactation: identical fat values

## CCCCCC/C=C\CCCCCCCCCC(=O)O [cis-11]
C57/B1/6J mice [2]
  Test isomer in milk: 10 % of the fat
C57/B1/6J mice [1]
  Milk fat on day 10 versus day 6 of lactation: numerically lower

## CCCCCCCC/C=C/CCCCCCCC(=O)O [trans-9]
C57/B1/6J mice [2]
  Test isomer in milk: 5.8 % of the fat
C57/B1/6J mice [1]
  Milk fat on day 10 versus day 6 of lactation: statistically lower

## CCCCCC/C=C/CCCCCCCCCC(=O)O [trans-11, trans vaccinic acid]
cows
  Effect of ingestion on milk fat levels in cows: do not reduce milk fat levels
C57/B1/6J mice [2]
  Test isomer in milk: 3 % of the fat
C57/B1/6J mice [1]
  Milk fat on day 10 versus day 6 of lactation: numerically lower
C57/B1/6J mice [1]; mouse, in vivo
  Effect of ingestion on milk fat in the lactation products of mammals: does not reduce milk fat
